Experimental data as given in US20100119483A1, “PEPTIDE VIRAL ENTRY INHIBITORS” (Schering Corporation, priority 2004, published 2010).
“And” between values parts separate entries of the source, which are not always exact repeats. Equal entries are not always repeated. Ends that are not written are not given here.

Key:
HCV pseudoparticles = assay: HCV pseudoparticle (HCVpp) entry assay in Huh7 hepatoma cells, luciferase readout; format: cell-based, hepatitis C virus; conditions: for HCVpp % inh: peptide library screen, first screened at 100 ug/ml, cell entry inhibition vs uninhibited control; for luciferase units, HCV entry: duplicates
How it was run: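 Pseudoparticles carrying HCV E1/E2 on an HIV luciferase backbone were produced in 293T cells; peptide was pre-incubated 1 h at 37 °C with Huh7 cells, then virus added and luciferase read after 72 h. Dose-response used 10-point 3-fold titration from 100 ug/ml; envelope-less particles controlled non-specific entry.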

[1] = system: amphotropic murine leukemia virus; assay: AMLV pseudotyped virus entry counter-screen, same infection protocol; format: cell-based; conditions: for AMLVpp % inh: peptide library screen, cell entry inhibition vs uninhibited control; for luciferase units, AMLV entry: duplicates
Procedure: Infection of hepatoma cell lines with HCV pseudotype particles and screen for inhibitory peptides. The hepatoma cells, Huh7, was seeded at 8000 cells in 90 ul medium in 96-well plate. In the case of the inhibitor screen, the inhibitor was incubated with cells for one hour at 37° C. and then 50 ul viral supernatant was added to the cells 24 hours after seeding. The viral stock was pre-tittered and diluted to yield approximately 10,000 to 20,000 RLU. The cells were incubated at 37° C. with 5% CO2 for additional 72 hours and were harvested for luciferase assay. Peptide stocks were prepared in 100% DMSO at 10 mg/ml and were first screened at 100 ug/ml and then a dose responsive curve was generated with 10 points 3-fold titration starting from 100 ug/ml.
The specificity of the peptides were counter-screened with AMLV and HIV pseudotyped viruses using the same infection protocol.

## A-A-L-C-S-A-M-Y-V-G-D-L-C-G-S-V [SEQ ID NO: 14]
HCV pseudoparticles
  HCVpp % inh: 39%
[1]
  AMLVpp % inh: −42%

## L-E-D-R-D-R-S-E-L-S-P-L-L-L-S-T (LEDRDRSELSPLLLST; not fully specified (C-terminus); printed as L-E-D-R-D-R-S-E-L-S-P-L-L-L-S-T) [SEQ ID NO: 69]
HCV pseudoparticles
  HCVpp % inh: −15%
[1]
  AMLVpp % inh: 1%

## T-R-P-P-Q-G-N-W-F-G-C-T-W-M-N-S [SEQ ID NO: 53]
HCV pseudoparticles
  HCVpp % inh: 59%
[1]
  AMLVpp % inh: −42%

## L-P-C-S-F-T-T-L-P-A-L-S-T-G-L-I (LPCSFTTLPALSTGLI; HCV peptide) [SEQ ID NO: 72]
HCV pseudoparticles
  HCVpp % inh: −2%
[1]
  AMLVpp % inh: 20%

## P-C-G-I-V-P-A-A-Q-V-C-G-P-V-Y-C [SEQ ID NO: 46]
HCV pseudoparticles
  HCVpp % inh: 29%
[1]
  AMLVpp % inh: −2%

## L-F-S-P-G-S-S-Q-K-I-Q-L-V-N-T-N [SEQ ID NO: 33]
HCV pseudoparticles
  HCVpp % inh: 61%
[1]
  AMLVpp % inh: −49%

## F-A-Q-G-W-G-P-I-T-Y-N-E-S-H-S-S [SEQ ID NO: 42]
HCV pseudoparticles
  HCVpp % inh: 49%
[1]
  AMLVpp % inh: 15%

## G-V-Y-H-V-T-N-D-C-S-N-A-S-I-V-Y [SEQ ID NO: 4]
HCV pseudoparticles
  HCVpp % inh: −23%
[1]
  AMLVpp % inh: −6%

## V-D-G-G-T-Y-V-T-G-G-T-M-A-K-N-T [SEQ ID NO: 30]
HCV pseudoparticles
  HCVpp % inh: 2%
[1]
  AMLVpp % inh: −9%

## V-D-L-L-V-G-A-A-A-L-C-S-A-M-Y-V [SEQ ID NO: 13]
HCV pseudoparticles
  HCVpp % inh: 39%
[1]
  AMLVpp % inh: −13%

## V-C-A-C-L-W-M-M-L-L-I-A-Q-A-E-A [SEQ ID NO: 80]
HCV pseudoparticles
  HCVpp % inh: 16%
[1]
  AMLVpp % inh: 7%

## N-W-A-K-V-L-I-V-M-L-L-F-A-G-V-D [SEQ ID NO: 28]
HCV pseudoparticles
  HCVpp % inh: 13%
[1]
  AMLVpp % inh: −1%

## G-H-V-T-G-H-R-M-A-W-D-M-M-M-N-W [SEQ ID NO: 20]
HCV pseudoparticles
  HCVpp % inh: 43%
[1]
  AMLVpp % inh: 6%

## G-C-P-E-R-M-A-S-C-S-P-I-D-A-F-A [SEQ ID NO: 40]
HCV pseudoparticles
  HCVpp % inh: 35%
[1]
  AMLVpp % inh: −4%

## P-Y-R-L-W-H-Y-P-C-T-V-N-F-T-I-F (PYRLWHYPCTVNFTIF; HCV peptide) [SEQ ID NO: 63]
HCV pseudoparticles
  HCVpp % inh: 44%
[1]
  AMLVpp % inh: 3%

## E-Y-V-L-L-L-F-L-L-L-A-D-A-R-V-C [SEQ ID NO: 78]
HCV pseudoparticles
  HCVpp % inh: 38%
[1]
  AMLVpp % inh: 34%

## Y-G-I-G-S-A-V-V-S-F-A-I-K-W-E-Y [SEQ ID NO: 76]
HCV pseudoparticles
  HCVpp % inh: 7%
[1]
  AMLVpp % inh: 24%

## S-T-T-E-W-Q-V-L-P-C-S-F-T-T-L-P [SEQ ID NO: 71]
HCV pseudoparticles
  HCVpp % inh: 44%
[1]
  AMLVpp % inh: 18%

## S-V-F-L-V-A-Q-L-F-T-F-S-P-R-R-H [SEQ ID NO: 16]
HCV pseudoparticles
  HCVpp % inh: 3%
[1]
  AMLVpp % inh: −148%

## V-G-G-V-E-H-R-L-E-A-A-C-N-W-T-R (VGGVEHRLEAACNWTR; HCV peptide) [SEQ ID NO: 66]
HCV pseudoparticles
  HCVpp % inh: 22%
[1]
  AMLVpp % inh: 34%

## Q-K-I-Q-L-V-N-T-N-G-S-W-H-I-N-R (QKIQLVNTNGSWHINR; HCV peptide) [SEQ ID NO: 34]
HCV pseudoparticles
  HCVpp % inh: 6%
[1]
  AMLVpp % inh: 13%

## L-F-T-F-S-P-R-R-H-E-T-V-Q-D-C-N [SEQ ID NO: 17]
HCV pseudoparticles
  HCVpp % inh: 9%
[1]
  AMLVpp % inh: 16%

## D-C-S-N-A-S-I-V-Y-E-A-A-D-M-I-M [SEQ ID NO: 5]
HCV pseudoparticles
  HCVpp % inh: −4%
[1]
  AMLVpp % inh: −2%

## R-F-G-V-P-T-Y-S-W-G-E-N-E-T-D-V [SEQ ID NO: 50]
HCV pseudoparticles
  HCVpp % inh: 34%
[1]
  AMLVpp % inh: 33%

## D-C-F-R-K-H-P-E-A-T-Y-T-K-C-G-S [SEQ ID NO: 59]
HCV pseudoparticles
  HCVpp % inh: 26%
[1]
  AMLVpp % inh: −14%

## F-L-A-A-L-F-Y-V-H-K-F-N-S-S-G-C [SEQ ID NO: 38]
HCV pseudoparticles
  HCVpp % inh: 23%
[1]
  AMLVpp % inh: −44%

## A-I-K-W-E-Y-V-L-L-L-F-L-L [SEQ ID NO: 85]
HCV pseudoparticles; 0.1 nM of peptide (printed for three rows), two values per peptide and row
  % control (HCVpp entry), alanine scanning: 79 % control and 81 % control and 101 % control and 74 % control and 113 % control and 112 % control
HCV pseudoparticles; 0.3 nM of peptide, two values per peptide
  % control (HCVpp entry), alanine scanning: 79 % control and 96 % control
HCV pseudoparticles; 1 nM of peptide, two values per peptide
  % control (HCVpp entry), alanine scanning: 95 % control and 83 % control
HCV pseudoparticles; 3 nM of peptide, two values per peptide
  % control (HCVpp entry), alanine scanning: 71 % control and 88 % control
HCV pseudoparticles; 10 nM of peptide, two values per peptide
  % control (HCVpp entry), alanine scanning: 90 % control and 107 % control
HCV pseudoparticles; 30 nM of peptide, two values per peptide
  % control (HCVpp entry), alanine scanning: 62 % control and 57 % control
HCV pseudoparticles; 0.04115226 uM of peptide
  luciferase units, HCV entry: 7203 luciferase units and 6444 luciferase units
HCV pseudoparticles; 100 nM of peptide, two values per peptide
  % control (HCVpp entry), alanine scanning: 45 % control and 50 % control
HCV pseudoparticles; 300 nM of peptide, two values per peptide
  % control (HCVpp entry), alanine scanning: 18 % control and 22 % control
HCV pseudoparticles; 0.3703704 uM of peptide
  luciferase units, HCV entry: 3658 luciferase units and 3430 luciferase units
HCV pseudoparticles; 1.111111 uM of peptide
  luciferase units, HCV entry: 4380 luciferase units and 2918 luciferase units
HCV pseudoparticles; 3.333333 uM of peptide
  luciferase units, HCV entry: 2239 luciferase units and 2490 luciferase units
HCV pseudoparticles; 10 uM of peptide
  luciferase units, HCV entry: 3393 luciferase units and 2865 luciferase units
HCV pseudoparticles; 10000 nM of peptide, two values per peptide
  % control (HCVpp entry), alanine scanning: 13 % control and 18 % control
HCV pseudoparticles; 30000 nM of peptide, two values per peptide
  % control (HCVpp entry), alanine scanning: 70 % control and 103 % control
HCV pseudoparticles; percentage of hepatitis C virus cellular entry at 30 μM peptide vs uninhibited control
  % of control at ~30 uM: 20%
[1]; 0.01371742 uM of peptide (three lines)
  luciferase units, AMLV entry: 55532 luciferase units and 43767 luciferase units and 32138 luciferase units and 44812 luciferase units and 41172 luciferase units and 40068 luciferase units
[1]; 0.04115226 uM of peptide
  luciferase units, AMLV entry: 32390 luciferase units and 42604 luciferase units
[1]; 0.1234568 uM of peptide
  luciferase units, AMLV entry: 41483 luciferase units and 44739 luciferase units
[1]; 0.3703704 uM of peptide
  luciferase units, AMLV entry: 44659 luciferase units and 43073 luciferase units
[1]; 1.111111 uM of peptide
  luciferase units, AMLV entry: 42996 luciferase units and 48628 luciferase units
[1]; 3.333333 uM of peptide
  luciferase units, AMLV entry: 92146 luciferase units and 118949 luciferase units
[1]; 10 uM of peptide
  luciferase units, AMLV entry: 129890 luciferase units and 172763 luciferase units
[1]; 30 uM of peptide
  luciferase units, AMLV entry: 72040 luciferase units and 83257 luciferase units

## V-V-V-G-T-T-D-R-F-G-V-P-T-Y-S-W [SEQ ID NO: 49]
HCV pseudoparticles
  HCVpp % inh: 37%
[1]
  AMLVpp % inh: −22%

## T-R-G-E-R-C-N-L-E-D-R-D-R-S-E-L [SEQ ID NO: 68]
HCV pseudoparticles
  HCVpp % inh: 13%
[1]
  AMLVpp % inh: −7%

## L-V-V-S-Q-L-L-R-I-P-Q-A-V-V-D-M [SEQ ID NO: 23]
HCV pseudoparticles
  HCVpp % inh: 3%
[1]
  AMLVpp % inh: −1%

## S-C-S-P-I-D-A-F-A-Q-G-W-G-P-I-T [SEQ ID NO: 41]
HCV pseudoparticles
  HCVpp % inh: −11%
[1]
  AMLVpp % inh: 25%

## N-T-L-G-I-T-S-L-F-S-P-G-S-S-Q-K [SEQ ID NO: 32]
HCV pseudoparticles
  HCVpp % inh: 11%
[1]
  AMLVpp % inh: 2%

## M-A-W-D-M-M-M-N-W-S-P-T-A-A-L-V (MAWDMMMNWSPTAALV; not fully specified (C-terminus); printed as M-A-W-D-M-M-M-N-W-S-P-T-A-A-L-V) [SEQ ID NO: 21]
HCV pseudoparticles
  HCVpp % inh: 32%
[1]
  AMLVpp % inh: 3%
